Experiment: Pharmacokinetic test of compound in SD rat
Assay type: in vivo
Details: SD rats, intragastric administration (IG), cassette dosing
Description: Example 28: Pharmacokinetic Test of Compound in SD Rat
The animal species used in this experiment were SD rats. There were 3 animals per group. The rats were dosed in cassette format, i.e., multiple (1-6) different compounds were dosed simultaneously to the same group of the SD rats. The vehicle used for the drug was 5% DMSO+5% Solutl+90% ([…] methylcellulose M450), and the administration route was intragastric administration (IG).

Structure (SMILES) | AUC_D [kg·ng·h/mL/mg]
CNC(=O)[C@H]1O[C@@H](n2cnc3c(NCc4cccc(OC)c4)nc(-c4cncc(Cl)c4)nc32)[C@H](O)[C@@H]1O (stereo in doubt) [compound 213, (2S,3S,4R,5S)-5-(2-(5-chloropyridin-3-yl)-6-((3-methoxybenzyl)amino)-9/-purin-9-yl)-3,4-dihydroxyl-N-methyltetrahydrofuran-2-carboxamide] | 360.90
[2H]C([2H])([2H])NC(=O)[C@H]1O[C@@H](n2cnc3c(NCc4cccc(I)c4)ncnc32)[C@H](O)[C@@H]1O [compound 1, (2S,3S,4R,5R)-5-(6-(3-iodobenzylamino)-9H-purin-9-yl)-3,4-dihydroxyl-N-(methyl-d3)-tetrahydrofuran-2-formamide] | 343.50
CONC(=O)[C@H]1O[C@@H](n2cnc3c(NCc4cccc(I)c4)ncnc32)[C@H](O)[C@@H]1O [compound 3, (2S,3S,4R,5R)-5-(6-(3-iodobenzylamino)-9H-purin-9-yl)-3,4-dihydroxyl-N-methoxy-tetrahydrofuran-2-formamide] | 152.40
[2H]C([2H])([2H])NC(=O)[C@H]1O[C@@H](n2cnc3c(NCc4ccccc4)nc(-c4cccnc4)nc32)[C@H](O)[C@@H]1O [compound 10, (2S,3S,4R,5R)-5-(6-(benzylamino)-2-(pyridin-3-yl)-9H-purin-9-yl)-3,4-dihydroxyl-N-(methyl-d3)-tetrahydrofuran-2-formamide] | 146.00
[2H]C([2H])([2H])NC(=O)[C@H]1O[C@@H](n2cnc3c(NCc4ccccc4)nc(-c4ccoc4)nc32)[C@H](O)[C@@H]1O [compound 11, (2S,3S,4R,5R)-5-(6-(benzylamino)-2-(furan-3-yl)-9H-purin-9-yl)-3,4-dihydroxyl-N-(methyl-d3)-tetrahydrofuran-2-formamide] | 174.00
[2H]C([2H])([2H])NC(=O)[C@H]1O[C@@H](n2cnc3c(NCc4ccccc4)nc(-c4ccco4)nc32)[C@H](O)[C@@H]1O [compound 12, (2S,3S,4R,5R)-5-(6-(benzylamino)-2-(furan-2-yl)-9H-purin-9-yl)-3,4-dihydroxyl-N-(methyl-d3)-tetrahydrofuran-2-formamide] | 79.00
[2H]C([2H])([2H])NC(=O)[C@H]1O[C@@H](n2cnc3c(NCc4ccccc4)nc(-c4cncc(Cl)c4)nc32)[C@H](O)[C@@H]1O [compound 15, (2S,3S,4R,5R)-5-(6-(benzylamino)-2-(5-chloropyridin-3-yl)-9H-purin-9-yl)-3,4-dihydroxyl-N-(methyl-d3)-tetrahydrofuran-2-formamide] | 807.78
[2H]C([2H])([2H])NC(=O)[C@H]1O[C@@H](n2cnc3c(NCc4ccccc4)nc(-c4cncc(C)c4)nc32)[C@H](O)[C@@H]1O [compound 16, (2S,3S,4R,5R)-5-(6-(benzylamino)-2-(5-methylpyridin-3-yl)-9H-purin-9-yl)-3,4-dihydroxyl-N-(methyl-d3)-tetrahydrofuran-2-formamide] | 1291.00
[2H]C([2H])([2H])NC(=O)[C@H]1O[C@@H](n2cnc3c(NCc4ccccc4)nc(-c4cnc(C)c(C)c4)nc32)[C@H](O)[C@@H]1O [compound 17, (2S,3S,4R,5R)-5-(6-(benzylamino)-2-(5,6-dimethylpyridin-3-yl)-9/-purin-9-yl)-3,4-dihydroxyl-N-(methyl-d3)-tetrahydrofuran-2-formamide] | 168.00
[2H]C([2H])([2H])NC(=O)[C@H]1O[C@@H](n2cnc3c(NCc4ccccc4)nc(-c4cncc(C#N)c4)nc32)[C@H](O)[C@@H]1O [compound 19, (2S,3S,4R,5R)-5-(6-(benzylamino)-2-(5-cyanopyridin-3-yl)-9H-purin-9-yl)-3,4-dihydroxyl-N-(methyl-d3)-tetrahydrofuran-2-formamide] | 74.00
[2H]C([2H])([2H])NC(=O)[C@H]1O[C@@H](n2cnc3c(NCc4ccccc4)nc(-c4cncc(F)c4)nc32)[C@H](O)[C@@H]1O [compound 32, (2S,3S,4R,5R)-5-(6-(benzylamino)-2-(5-fluoropyridin-3-yl)-9H-purin-9-yl)-3,4-dihydroxyl-N-(methyl-d3)-tetrahydrofuran-2-formamide] | 1384.00
[2H]C([2H])([2H])NC(=O)[C@H]1O[C@@H](n2cnc3c(NCc4ccccc4)nc(-c4cncc(OC)c4)nc32)[C@H](O)[C@@H]1O [compound 33, (2S,3S,4R,5R)-5-(6-(benzylamino)-2-(5-methoxypyridin-3-yl)-9H-purin-9-yl)-3,4-dihydroxyl-N-(methyl-d3)-tetrahydrofuran-2-formamide] | 1578.00
[2H]C([2H])([2H])NC(=O)[C@H]1O[C@@H](n2cnc3c(NCc4ccccc4)nc(-c4cncc(CC)c4)nc32)[C@H](O)[C@@H]1O [compound 34, (2S,3S,4R,5R)-5-(6-(benzylamino)-2-(5-ethylpyridin-3-yl)-9H-purin-9-yl)-3,4-dihydroxyl-N-(methyl-d3)-tetrahydrofuran-2-formamide] | 578.00
CCNC(=O)[C@H]1O[C@@H](n2cnc3c(NC)nc(-c4ccc(OC)nc4)nc32)[C@H](O)[C@@H]1O [compound 58, (2S,3S,4R,5R)-N-ethyl-3,4-dihydroxyl-5-(2-(6-methoxypyridin-3-yl)-6-(methylamino)-9H-purin-9-yl)tetrahydrofuran-2-carboxamide] | 110.00
CNC(=O)[C@H]1O[C@@H](n2cnc3c(NCc4ccccn4)nc(-c4cncc(C)c4)nc32)[C@H](O)[C@@H]1O [compound 69, (2S,3S,4R,5R)-3,4-dihydroxyl-N-methyl-5-(2-(5-methylpyridin-3-yl)-6-((pyridin-2-ylmethyl)amino)-9H-purin-9-yl)tetrahydrofuran-2-carboxamide] | 360.90
CCNC(=O)[C@H]1O[C@@H](n2cnc3c(NC)nc(-c4ccoc4)nc32)[C@H](O)[C@@H]1O [compound 74, (2S,3S,4R,5R)-N-ethyl-5-(2-(furan-3-yl)-6-(methylamino)-9H-purin-9-yl)-3,4-dihydroxyltetrahydrofuran-2-carboxamide] | 213.00
CCNC(=O)[C@H]1O[C@@H](n2cnc3c(NC)nc(-c4ccsc4)nc32)[C@H](O)[C@@H]1O [compound 77, (2S,3S,4R,5R)-N-ethyl-3,4-dihydroxyl-5-(6-(methylamino)-2-(thiophen-3-yl)-9H-purin-9-yl)tetrahydrofuran-2-carboxamide] | 81.00
[2H]C([2H])([2H])NC(=O)[C@H]1O[C@@H](n2cnc3c(NC([2H])([2H])[2H])nc(-c4ccoc4)nc32)[C@H](O)[C@@H]1O [compound 97, (2S,3S,4R,5R)-5-(2-(furan-3-yl)-6-((methyl-d3)amino)-9H-purin-9-yl)-3,4-dihydroxyl-N-(methyl-d)tetrahydrofuran-2-carboxamide] | 115.00
CNC(=O)[C@H]1O[C@@H](n2cnc3c(NCc4ccccc4)nc(-c4cccnc4)nc32)[C@H](O)[C@@H]1O [compound 110, (2S,3S,4R,5R)-5-(6-(benzylamino)-2-(pyridin-3-yl)-9H-purin-9-yl)-3,4-dihydroxyl-N-methyltetrahydrofuran-2-carboxamide] | 276.50
CNC(=O)[C@H]1O[C@@H](n2cnc3c(NCc4ccccc4)nc(-c4cncc(C)c4)nc32)[C@H](O)[C@@H]1O [compound 118, (2S,3S,4R,5R)-5-(6-(benzylamino)-2-(5-methylpyridin-3-yl)-9H-purin-9-yl)-3,4-dihydroxyl-N-methyltetrahydrofuran-2-carboxamide] | 347.00
CNC(=O)[C@H]1O[C@@H](n2cnc3c(NCc4ccccc4)nc(-c4ccc(C)nc4)nc32)[C@H](O)[C@@H]1O [compound 120, (2S,3S,4R,5R)-5-(6-(benzylamino)-2-(6-methylpyridin-3-yl)-9H-purin-9-yl)-3,4-dihydroxyl-N-methyltetrahydrofuran-2-carboxamide] | 86.00
CNC(=O)[C@H]1O[C@@H](n2cnc3c(NCc4ccccc4)nc(-c4ccc(F)c(F)c4)nc32)[C@H](O)[C@@H]1O [compound 143, (2S,3S,4R,5R)-5-(6-(benzylamino)-2-(3,4-difluorophenyl)-9H-purin-9-yl)-3,4-dihydroxyl-N-methyltetrahydrofuran-2-carboxamide] | 80.00
CNC(=O)[C@H]1O[C@@H](n2cnc3c(NCc4ccccc4)nc(-c4ccoc4)nc32)[C@H](O)[C@@H]1O [compound 149, (2S,3S,4R,5R)-5-(6-(benzylamino)-2-(furan-3-yl)-9H-purin-9-yl)-3,4-dihydroxyl-N-methyltetrahydrofuran-2-carboxamide] | 337.00
CNC(=O)[C@H]1O[C@@H](n2cnc3c(NCc4ccccc4)nc(-c4cncc(Cl)c4)nc32)[C@H](O)[C@@H]1O [compound 150, (2S,3S,4R,5R)-5-(6-(benzylamino)-2-(5-chloropyridin-3-yl)-9H-purin-9-yl)-3,4-dihydroxyl-N-methyltetrahydrofuran-2-carboxamide] | 1821.60
CNC(=O)[C@H]1O[C@@H](n2cnc3c(NCc4ccccc4)nc(-c4ccsc4)nc32)[C@H](O)[C@@H]1O [compound 151, (2S,3S,4R,5R)-5-(6-(benzylamino)-2-(thiophen-3-yl)-9H-purin-9-yl)-3,4-dihydroxyl-N-methyltetrahydrofuran-2-carboxamide] | 89.00
CNC(=O)[C@H]1O[C@@H](n2cnc3c(NCc4ccccc4)nc(-c4cncc([N+](=O)[O-])c4)nc32)[C@H](O)[C@@H]1O [compound 152, (2S,3S,4R,5R)-5-(6-(benzylamino)-2-(5-nitropyridin-3-yl)-9H-purin-9-yl)-3,4-dihydroxyl-N-methyltetrahydrofuran-2-carboxamide] | 1352.37
